Experimental data taken from patent US20080280837A1, “Biologically Active Compounds with Anti-Angiogenic Properties” (priority 2004, published 2008).
Structures can show the parent of a compound that is named as a salt.

What was measured:
[1] = Solubility of salts of compound 1; type: physicochemical; settings: for Solubility in Water: overnight
[2] = system: Human Umbilical Vein Endothelial Cells (HUVEC); test: Endothelial cell proliferation assay (MTS); type: cell-based; settings: 48 hrs
Experimental: Human Umbilical Vein Endothelial Cells (HUVEC from Clonetics) were plated in 96 well plates at 1000 cell per well in EGM-2 medium (Clonetics). Cells were grown overnight at 37° C. in 5% CO2. Fresh EGM-2 medium containing compound at the desired concentration was added to the wells and the cells allowed to grow for a further 48 hrs. A MTS (Promega) colorimetric assay was performed after 48 hrs to determine cell growth according to the manufacturers instructions. Results are presented in terms of percentage growth.

[3] = target: T1, Human SST5 somatostatin receptor (SSTR5) (Homo sapiens, UniProt P35346); test: Filter plate assay for SST5 receptor, displacement of [125I]SST-14; type: binding; settings: for Ki / IC50: Table 8; for IC50: shown where Ki could not be determined (NoModel), read-out: IC50 SSTR5 (in parentheses)
T1 construct: expressed in transfected cells; host or cells: HEK-293 EBNA
T1 sequence (P35346 whole entry): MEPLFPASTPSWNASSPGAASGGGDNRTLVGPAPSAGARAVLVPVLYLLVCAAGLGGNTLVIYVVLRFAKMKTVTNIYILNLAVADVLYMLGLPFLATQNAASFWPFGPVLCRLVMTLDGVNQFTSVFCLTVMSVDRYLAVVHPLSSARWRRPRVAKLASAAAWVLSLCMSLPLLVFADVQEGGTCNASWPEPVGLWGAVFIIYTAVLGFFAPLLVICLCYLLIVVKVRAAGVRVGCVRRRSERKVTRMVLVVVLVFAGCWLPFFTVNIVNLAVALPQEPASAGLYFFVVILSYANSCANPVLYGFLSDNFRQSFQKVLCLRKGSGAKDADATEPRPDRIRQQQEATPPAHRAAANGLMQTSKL
Procedure, shortened: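 HEK-293 EBNA membranes expressing human SST5 (5.5 μg) incubated 60 min at 25 °C with 4 nM [125I]SST-14 and compound in pH 7.5 Tris/EGTA/MgCl2/sucrose buffer. Bound radioactivity collected on PEI-coated glass fiber filters and counted; triplicate 1:5 dilution series from 125 μM, non-specific binding with excess cold ligand.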

[4] = target: T2, SSTR-4 (Homo sapiens, UniProt P31391); test: Radioligand binding screen against somatostatin subtype SSTR-4 (SST4 assay); settings: Table 8; read-out: Ki SSTR4
T2 construct: expressed in transfected cells
T2 sequence (P31391 whole entry): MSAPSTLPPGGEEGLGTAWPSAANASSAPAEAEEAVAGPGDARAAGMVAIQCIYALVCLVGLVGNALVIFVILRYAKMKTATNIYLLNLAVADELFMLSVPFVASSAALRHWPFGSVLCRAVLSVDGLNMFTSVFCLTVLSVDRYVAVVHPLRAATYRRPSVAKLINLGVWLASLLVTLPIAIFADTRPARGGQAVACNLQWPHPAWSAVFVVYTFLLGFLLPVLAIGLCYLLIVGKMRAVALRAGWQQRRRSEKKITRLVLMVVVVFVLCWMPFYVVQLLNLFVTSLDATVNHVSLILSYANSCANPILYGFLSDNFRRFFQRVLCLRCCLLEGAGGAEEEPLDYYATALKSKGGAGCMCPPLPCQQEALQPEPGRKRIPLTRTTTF
Experimental: (§1) Receptor membrane preparations containing the desired cloned receptor (for example cloned human somatostatin receptor subtype 5, SSTR5) and radio-labeled ligand (for example 3-[^125I]iodotyrosyl^11 Somatostatin-14)) were diluted at the concentration required for testing and according to the specific parameters associated with the selected receptor-ligand combination, including receptor Bmax, ligand Kd and any other parameters necessary to optimize the experimental conditions. When tested for competition activity to the reference ligand, “compound 1” was mixed with membrane suspension and the radiolabeled reference ligand (with or without an excess of cold ligand to the receptor for determination of non-specific binding) and incubated at the temperature required by internal standard operating procedures. Following incubation, the binding reaction was stopped by the addition of ice-cold washing buffer and filtered on appropriate filters, which are then counted. Data analysis and curve-fitting was performed with XLfit (IDBS).
(§2) 10 mM solutions of test compounds in 100% DMSO were prepared. ˜160 μl was used for each dilution (20 μl/well in triplicate).
(§3) A 1.25 mM assay stock was prepared by making a 1:8 dilution of the 10 mM solution. (To 30 μL of the 10 mM solution was added 210 μL milli-Q H2O. A 1:5 dilution series in milli-Q H2O was then prepared.
Assays were performed in triplicate at each concentration within the 1:5 dilution series: 250 μM, 50 μM, 10 μM, […], 0.4 μM, 0.08 μM, 0.016 μM, 0.0032 μM, etc. (for SST4 assay) and 125 μM, 10 μM, 2 μM, 1 μM, 0.5 μM, etc (for SST5 assay).
(§4) In primary screening experiments compounds were tested in duplicate for a particular concentration.

[5] = target: T3, SSTR-3 (Homo sapiens, UniProt P32745); test: Radioligand binding screen against somatostatin subtype SSTR-3; settings: Table 8; for Ki: read-out: Ki SSTR3; for IC50: shown where Ki could not be determined (NoModel), read-out: IC50 SSTR3 (in parentheses)
T3 construct: expressed in transfected cells
T3 sequence (P32745 whole entry): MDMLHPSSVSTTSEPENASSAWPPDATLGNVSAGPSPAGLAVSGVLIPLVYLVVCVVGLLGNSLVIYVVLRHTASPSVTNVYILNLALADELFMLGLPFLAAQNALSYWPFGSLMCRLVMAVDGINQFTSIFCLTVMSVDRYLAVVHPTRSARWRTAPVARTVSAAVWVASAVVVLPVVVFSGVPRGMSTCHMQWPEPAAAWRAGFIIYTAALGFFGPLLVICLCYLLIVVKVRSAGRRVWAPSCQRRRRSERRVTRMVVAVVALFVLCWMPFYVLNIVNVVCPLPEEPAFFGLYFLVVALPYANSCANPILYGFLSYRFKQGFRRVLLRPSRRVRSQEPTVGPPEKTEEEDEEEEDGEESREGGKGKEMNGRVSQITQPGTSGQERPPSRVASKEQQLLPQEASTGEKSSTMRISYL
Experimental: as §1, §2, §3, §4

[6] = target: T4, SSTR-2 (Homo sapiens, UniProt P30874); test: Radioligand binding screen against somatostatin subtype SSTR-2; settings: Table 8; for Ki: read-out: Ki SSTR2
T4 construct: expressed in transfected cells
T4 sequence (P30874 whole entry): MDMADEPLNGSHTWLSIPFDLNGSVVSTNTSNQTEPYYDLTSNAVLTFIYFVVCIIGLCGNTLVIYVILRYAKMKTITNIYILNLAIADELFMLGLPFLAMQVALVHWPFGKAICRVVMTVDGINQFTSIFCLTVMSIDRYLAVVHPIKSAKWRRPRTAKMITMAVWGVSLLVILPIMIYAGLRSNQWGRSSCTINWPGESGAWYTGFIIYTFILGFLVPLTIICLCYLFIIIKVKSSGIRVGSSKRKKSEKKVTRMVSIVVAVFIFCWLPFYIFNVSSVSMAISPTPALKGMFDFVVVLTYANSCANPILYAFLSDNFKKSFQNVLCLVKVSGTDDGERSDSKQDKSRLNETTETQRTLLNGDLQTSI
Experimental: as §1, §2, §3, §4

[7] = target: T5, SSTR-1 (Homo sapiens, UniProt P30872); test: Radioligand binding screen against somatostatin subtype SSTR-1; settings: Table 8; read-out: Ki SSTR1
T5 construct: expressed in transfected cells
T5 sequence (P30872 whole entry, species assumed): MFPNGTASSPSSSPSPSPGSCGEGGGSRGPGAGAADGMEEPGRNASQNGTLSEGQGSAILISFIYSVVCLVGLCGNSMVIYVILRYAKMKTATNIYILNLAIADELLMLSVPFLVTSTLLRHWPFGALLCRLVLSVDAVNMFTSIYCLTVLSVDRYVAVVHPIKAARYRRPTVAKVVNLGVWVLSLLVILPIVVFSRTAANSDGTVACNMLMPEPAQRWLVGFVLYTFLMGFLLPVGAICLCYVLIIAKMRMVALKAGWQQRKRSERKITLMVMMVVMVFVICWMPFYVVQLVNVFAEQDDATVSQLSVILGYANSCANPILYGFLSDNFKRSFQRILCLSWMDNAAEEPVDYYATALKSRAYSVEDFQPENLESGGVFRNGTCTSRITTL
Experimental: as §1, §2, §3, §4

[8] = system: chicken embryo chorioallantoic membrane (CAM) vasculature; test: Early chicken embryo chorioallantoic membrane (earlyCAM) assay; type: in vivo; settings: dose of 10 nmol
Experimental: Vein diameter was included as a measure of vessel growth. Where there was more than one major vein branch, the diameters of both were added together to give a total vein diameter. In the control CAM there were two well developed vein branches of similar diameter. In contrast, in the treated CAM there was a single major vein branch. Total vein diameter is 239 pixels in the control CAM, and only 107 pixels in the treated CAM.
When “compound 1” was applied to the CAM, there were dose responsive reductions in CAM growth and vasculature. The effects on CAM growth and vessel parameters were expressed as pixel measures (Table 1) and also as a percentage of the vehicle treated control group (FIG. 1). Vein lengths were reduced at all dose levels of “compound 1”, both in pixel and percentage terms, with a reduction to 67% of control at 5 nmol (p<0.05). […] When artery and vein lengths were combined to give total vessel length there was a significant reduction at the 5 nmol level (FIG. 1; p<0.05). A strong trend to reduced CAM growth with increasing doses of “compound 1” was also present.

Row | Compound | Ki [3] | Ki [4] | Ki [5] | Ki [6] | Ki [7] | Percent cell growth at 125 µM [2] | Percent cell growth at 250 µM [2] | further results
1 | COC[C@H]1O[C@H](OCCc2ccccc2)[C@H](NC(=O)CCCN)[C@@H](OCc2ccc3ccccc3c2)[C@@H]1O [Acetate] |  |  |  |  |  |  |  | Solubility in Water [1]: 6960 µg/mL
2 | COC[C@H]1O[C@H](OCCc2ccccc2)[C@H](NC(=O)CCCN)[C@@H](OCc2ccc3ccccc3c2)[C@@H]1O [Citrate] |  |  |  |  |  |  |  | Solubility in Water [1]: 4540 µg/mL
3 | COC[C@H]1OC(OCc2ccc(Cl)cc2)[C@H](NC(=O)CCN)[C@H](OCc2ccc3ccccc3c2)[C@@H]1O (stereo partly shown) [Compound 3] |  | 4580 nM |  | 1230 nM | 3730 nM | -75% | -39% | IC50 [3]: 147 nM; IC50 [5]: 127 nM
4 | COC[C@H]1OC(OCc2ccc(Cl)cc2)[C@H](NC(=O)CCCN=C(N)N)[C@H](OCc2ccc3ccccc3c2)[C@@H]1O (stereo partly shown) [Compound 4] | 530 nM | 1420 nM | 188 nM | 842 nM | 1590 nM | -98% | -90% | 
5 | COC[C@H]1OC(OCc2ccc3ccccc3c2)[C@H](NC(=O)CCN)[C@H](OCc2ccc(Cl)cc2)[C@@H]1O (stereo partly shown) [Compound 7] | 22 nM | 9130 nM | 131 nM | 498 nM | 6090 nM | -81% | -63% | 
6 | COC[C@H]1OC(OCc2ccc3ccccc3c2)[C@H](NC(=O)CCCN)[C@@H](OCc2ccc3ccccc3c2)[C@@H]1O (stereo partly shown) [Compound 11] |  | 3980 nM |  | 4850 nM | 9220 nM | 29% | -53% | IC50 [3]: 3 nM; IC50 [5]: 2 nM
7 | COC[C@H]1O[C@@H](OCc2ccc3ccccc3c2)[C@H](NC(=O)CCCN)[C@@H](OCc2ccc(Cl)cc2)[C@@H]1O [Compound 12] | 46 nM | > 10000 nM |  | 5060 nM | > 10000 nM | -95% | -71% | IC50 [5]: 429 nM
8 | COC[C@H]1O[C@H](OCc2ccc3ccccc3c2)[C@H](NC(=O)CCCN)[C@@H](OCc2ccc(Cl)cc2)[C@@H]1O [Compound 13] | 62 nM | > 10000 nM |  | > 10000 nM | > 10000 nM | 58% | -80% | IC50 [5]: 476 nM
9 | CO[C@H]1[C@H](O)[C@@H](COCc2ccc3ccccc3c2)OC(OCc2ccc(Cl)cc2)[C@@H]1NC(=O)C1CCCN(C(=N)N)C1 (stereo partly shown) [Compound 14] | 549 nM | > 10000 nM | 340 nM | 1210 nM | > 10000 nM | -95% | -90% | 
10 | COC[C@H]1OC(OCc2ccc3ccccc3c2)[C@H](NC(=O)CCN)[C@H](OCc2ccc3ccccc3c2)[C@@H]1O (stereo partly shown) [Compound 16] | 85 nM | 4380 nM | 441 nM | 860 nM | 2370 nM |  |  | 
11 | COC[C@H]1OC(OCc2ccc3ccccc3c2)[C@H](NC(=O)CNC(=N)N)[C@H](OCc2ccc3ccccc3c2)[C@@H]1O (stereo partly shown) [Compound 174] |  |  |  |  |  |  |  | SSTR5 Inhib 0.5 uM % (inhibition of binding of SST-14 to SSTR5) [3]: 31%; SSTR5 Inhib 10 uM % (inhibition of binding of SST-14 to SSTR5) [3]: 71%
12 | COC[C@H]1OC(OCc2ccc(Cl)cc2)[C@H](NC(=O)CCCNC(=N)N)[C@H](OCc2ccccc2)[C@@H]1O (stereo partly shown) [Compound 176] |  |  |  |  |  |  |  | SSTR5 Inhib 0.5 uM % (inhibition of binding of SST-14 to SSTR5) [3]: 37%; SSTR5 Inhib 10 uM % (inhibition of binding of SST-14 to SSTR5) [3]: 71%
13 | COC1C(O)C(COCc2ccc(-c3ccccc3)cc2)OC(OCc2ccc(Cl)cc2)C1NC(=O)CNC(=N)N (stereo not shown) [Compound 177] |  |  |  |  |  |  |  | SSTR5 Inhib 0.5 uM % (inhibition of binding of SST-14 to SSTR5) [3]: 47%; SSTR5 Inhib 10 uM % (inhibition of binding of SST-14 to SSTR5) [3]: 71%
14 | COC[C@H]1OC(OCc2ccc(-c3ccccc3)cc2)[C@H](NC(=O)CCCNC(=N)N)[C@@H](OCc2ccc3ccccc3c2)[C@@H]1O (stereo partly shown) [Compound 178] |  |  |  |  |  |  |  | SSTR5 Inhib 0.5 uM % (inhibition of binding of SST-14 to SSTR5) [3]: 39%; SSTR5 Inhib 10 uM % (inhibition of binding of SST-14 to SSTR5) [3]: 71%
15 | CO[C@H]1[C@H](O)[C@@H](COCc2ccc(-c3ccccc3)cc2)OC(OCc2ccc(-c3ccccc3)cc2)[C@@H]1NC(=O)CCCN (stereo partly shown) [Compound 179] |  |  |  |  |  |  |  | SSTR5 Inhib 0.5 uM % (inhibition of binding of SST-14 to SSTR5) [3]: 29%; SSTR5 Inhib 10 uM % (inhibition of binding of SST-14 to SSTR5) [3]: 70%
16 | COC[C@H]1O[C@H](OCCc2ccccc2)[C@H](NC(=O)CCCN)[C@@H](OCc2ccc3ccccc3c2)[C@@H]1O [Hydrochloride] |  |  |  |  |  |  |  | solubility at 3 day ([1]; 5% glucose, saline or isotonic, 5% Glucose, Day 3): 6300 µg/mL; Solubility in Water [1]: 7870 µg/mL
17 | COC[C@H]1O[C@H](OCCc2ccccc2)[C@H](NC(=O)CCCN)[C@@H](OCc2ccc3ccccc3c2)[C@@H]1O [Methanesulphonate] |  |  |  |  |  |  |  | Solubility in Water [1]: 5170 µg/mL
18 | COC[C@H]1O[C@H](OCCc2ccccc2)[C@H](NC(=O)CCCN)[C@@H](OCc2ccc3ccccc3c2)[C@@H]1O [Succinate] |  |  |  |  |  |  |  | Solubility in 5% Glucose ([1]; 5% Glucose, Day 3): 4980 µg/mL; Solubility in Water [1]: 8520 µg/mL
19 | COC[C@H]1O[C@H](OCCc2ccccc2)[C@H](NC(=O)CCCN)[C@@H](OCc2ccc3ccccc3c2)[C@@H]1O [TFA] |  |  |  |  |  |  |  | Solubility in 5% Glucose ([1]; 5% Glucose, Day 3): 5270 µg/mL; Solubility in Water [1]: 3640 µg/mL
20 | octeotride [reference compound] |  |  |  |  |  |  |  | Effect on the CAM vasculature [8]: did not appear to have any significant effect

Continued, in another order:

Row | Ki [3] | Ki [4] | Ki [5] | Ki [6] | Ki [7] | Compound | Percent cell growth at 125 µM [2] | Percent cell growth at 250 µM [2] | further results
21 | 353 nM | 3260 nM | 203 nM | 728 nM | 2280 nM | COC[C@H]1OC(OCc2ccc(Cl)cc2)[C@H](NC(=O)CCCN=C(N)N)[C@H](OCc2ccc(Cl)cc2)[C@@H]1O (stereo partly shown) [Compound 2] | -83% | -91% | 
22 | 153 nM | 8540 nM | 285 nM | 1570 nM | 2550 nM | COC[C@H]1OC(OCCc2ccccc2)[C@H](NC(=O)CCN)[C@H](OCc2ccc3ccccc3c2)[C@@H]1O (stereo partly shown) [Compound 5] | -89% | -57% | 
23 | 151 nM | > 10000 nM |  |  | > 10000 nM | COC[C@H]1OC(OCc2ccc3ccccc3c2)[C@H](NC(=O)CCN)[C@H](OCc2ccccc2)[C@@H]1O (stereo partly shown) [Compound 6] | 24% | -78% | IC50 [5]: 206 nM; IC50 ([6]; shown where Ki could not be determined (NoModel), read-out: IC50 SSTR2 (in parentheses)): 29200 nM
24 | 598 nM | 2770 nM | 599 nM | 2010 nM | 3090 nM | COC[C@H]1O[C@@H](OCc2ccc3ccccc3c2)[C@H](NC(=O)CCN=C(N)N)[C@H](OCc2ccc3ccccc3c2)[C@@H]1O [Compound 8] | 66% | -18% | 
25 | 73 nM | 2260 nM | 792 nM | 1040 nM | 1960 nM | COC[C@H]1O[C@H](OCc2ccc3ccccc3c2)[C@H](NC(=O)CCN)[C@H](OCc2ccc3ccccc3c2)[C@@H]1O [Compound 15] | -78% | -67% | 
